Among the data in PubChem BioAssay (NCI) are TGI and GI50 values, retold here.

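Method: 48-hour compound exposure of cells in 96-well plates, five concentrations, linear interpolation of endpoints. GI50: concentration for 50% inhibition of growth. TGI is the concentration that stops growth completely.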

Among the test systems are A549 NSCLC; CAKI-1 renal; EKVX NSCLC; MOLT-4 leukemia; OVCAR-3 ovarian; SF-539 CNS; SNB-19 CNS; SW-620 colon; U251 CNS; UACC-62 melanoma.
Common to all, as to test: DTP human tumour cell line panel, 48 h

Usually TGI stands for the concentration giving total growth inhibition. Low readings indicate greater sensitivity of the cells, high ones lower sensitivity of the cells. For the compound `C/C(=N\N(C)C)c1sc(-n2nc(-c3ccccc3)cc2-c2ccccc2)nc1C`, the TGI in the test with A549 NSCLC, in the test on CAKI-1 renal, in the test on EKVX NSCLC, with MOLT-4 leukemia, in the test on OVCAR-3 ovarian and in the test on SF-539 CNS was > 100 µM throughout. In addition, the TGI with SNB-19 CNS, with SW-620 colon, with U251 CNS and with UACC-62 melanoma was > 100 µM throughout.
Broadly, the GI50 is the concentration at which growth is held to half of that of the control. `CCOC(=O)/N=c1\ss/c(=N\C(=S)N(C)C)n1-c1ccccc1`: the GI50 in the test on A549 NSCLC was > 100 µM; in the test on MOLT-4 leukemia it was > 100 µM; with OVCAR-3 ovarian, 23.2 µM; in the test on SW-620 colon, > 100 µM. Besides, the TGI with A549 NSCLC, in the test with CAKI-1 renal, in the test with EKVX NSCLC, with MOLT-4 leukemia, in the test on SF-539 CNS and in the test with SNB-19 CNS was > 100 µM throughout. The TGI with SW-620 colon is > 100 µM; in the test with U251 CNS, 71.3 µM; in the test on UACC-62 melanoma it was > 100 µM.
As to `CCCCCCCCCCCCc1ccc(C(=O)/C=C/C(=O)O)cc1`, the GI50 with A549 NSCLC is 13.8 µM; in the test with CAKI-1 renal, 1.76 µM; with EKVX NSCLC it was 4.09 µM; in the test on MOLT-4 leukemia it was 0.99 µM; with OVCAR-3 ovarian, 1.91 µM; with SF-539 CNS, 1.73 µM. For the same compound, the GI50 in the test with SNB-19 CNS was 7.07 µM; with SW-620 colon, 1.43 µM; in the test on U251 CNS, 5.63 µM; in the test with UACC-62 melanoma it was 1.71 µM. Also, the TGI in the test on A549 NSCLC is 30.7 µM; with CAKI-1 renal, 3.58 µM; in the test with EKVX NSCLC, 17.1 µM; in the test with MOLT-4 leukemia, 5.11 µM; in the test with OVCAR-3 ovarian, 3.47 µM; with SF-539 CNS it was 3.33 µM. Further, the TGI worked out at 22 µM in the test with SNB-19 CNS, 3.67 µM in the test with SW-620 colon, 18.9 µM in the test with U251 CNS and 3.66 µM in the test with UACC-62 melanoma.
Take `COc1ccc(-c2cc(-c3ccc(Nc4nc(Nc5ccc(Cl)cc5)nc(Nc5ccc(Cl)cc5)n4)cc3)nc(N)c2C#N)cc1`: the GI50 with A549 NSCLC is 3.64 µM; in the test on CAKI-1 renal it was 1.47 µM; in the test with EKVX NSCLC it was 8.16 µM; in the test with MOLT-4 leukemia it was 0.702 µM; in the test with OVCAR-3 ovarian, 1.68 µM; in the test with SF-539 CNS it was 2.02 µM. Besides, the GI50 was 0.666 µM in the test on SW-620 colon, 2.29 µM in the test on U251 CNS and 2.64 µM with UACC-62 melanoma. Moreover, the total growth inhibition concentration (TGI) with A549 NSCLC is > 100 µM; in the test on CAKI-1 renal, 4.38 µM; in the test on EKVX NSCLC, > 21.9 µM; in the test with MOLT-4 leukemia, 3.56 µM; in the test with OVCAR-3 ovarian it was 3.18 µM; in the test with SF-539 CNS, 4.15 µM. In addition, the total growth inhibition concentration (TGI) with SNB-19 CNS is > 24.1 µM; with SW-620 colon it was 1.37 µM; in the test with U251 CNS, 6.58 µM; in the test with UACC-62 melanoma, 10.6 µM.
